Reference: patent US12304912B2, “Fused bicyclic RAF inhibitors and methods for use thereof” (Jazz Pharmaceuticals Ireland Limited, priority 2020, dated 2025)
In brackets after ≈: the same amount, converted by molar mass.

Legend:
[1] = test system: constitutive ERK phosphorylation in HCT-116 cells; test: HCT-116 AlphaLISA SureFire pERK1/2 cellular assay; format: cell-based, human; conditions: HCT116 cells, 2 hr, Abs; for IC50: Homo sapiens, HCT-116, read-out: pERK HCT116 (2 hr) Abs pIC50 (converted)
In short: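 Cells seeded overnight (30,000/well for 2 h, 15,000/well for 24 h), then dosed in 1% FBS medium with a 10-point series from 1 μM top, 1/3 log steps, for 2 or 24 h at 37 °C. Lysates read by AlphaLISA for Thr202/Tyr204 pERK1/2; absolute IC50 versus DMSO control.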

FeSSIF solubility assay = format: physicochemical; conditions: fed state simulated intestinal fluid (FeSSIF), thermodynamic from solid, pH 5 acetate buffer, 37° C., read-out: FESSIF Sol
In short: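 FeSSIF (pH 5 acetate buffer, 1 mL) was added to 1.0 mg solid compound and shaken at 650 rpm and 37 °C for 24 h. After filtration, dissolved compound was quantified by LC-UV against a 250 μM calibration standard.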

HCT-116 cells = test: HCT-116 CellTiter-Glo 3D cell proliferation assay; format: cell-based; conditions: Homo sapiens, HCT-116; HCT116 cells, 3D proliferation; read-out: 3D HCT116 pGI50 (converted)
Experimental: HCT-116 CellTiter-Glo 3D Cell Proliferation Assay
The human HCT-116 colorectal carcinoma cell line (ATCC CCL-247) endogenously expresses the KRAS^G13D mutation, which leads to enhanced survival and proliferative signaling. […] On the first day, HCT-116 cells were harvested, resuspended in growth medium (McCoys5A with Glutamax (Life Technologies 36600021) with 10% heat-inactivated fetal bovine serum (Sigma F9665)), and counted. Cells were plated in 100 μl per well in each well of a Corning 7007 96-well clear round bottom Ultra-Low Attachment plate (VWR 444-1020) to a final density of 1000 cells per well. Cells were seeded for pre- and post-treatment readouts. The cells were then incubated at 37° C. and 5% CO2 for 3 days (72 hours) to allow spheroid formation. After 72 hours, the plate seeded for a pre-treatment read was removed from the incubator to allow equilibration to room temperature for 30 minutes, before CellTitre-Glo® reagent was added to each well. The plates were incubated at room temperature for 5 minutes shaking at 300 rpm, followed by an incubation of 25 minutes on the benchtop before being read on the Envision reader (Perkin Elmer) as described below. On the same day, the cells plated for the post-treatment readout were dosed with compounds to produce a 9-point dose response, where the top concentration was 15 μM and following concentrations were at 1/2 log dilution intervals. These cells were subsequently incubated at 37° C. and 5% CO2 for another 4 days (96 hours). After 4 days, the plate was removed from the incubator to allow equilibration to room temperature for 30 minutes and treated with CellTitre Glo® reagent as stated above. […] The CellTitre Glo® reagent lyses the cells and contains luciferin and a luciferase (Ultra-Glo™ Recombinant Luciferase), which in the presence of ATP and oxygen can produce bioluminescence from luciferin. Therefore, plates were read on an EnVision reader (Perkin Elmer) and luminescence signals were recorded. Cell proliferation was determined on 4 days after dosing relative to the pre-treatment read. All data were analyzed using the Dotmatics or GraphPad Prism software packages. Inhibition of proliferation was assessed by determination of the GI50 value, which was defined as the concentration of compound required to decrease the level of cell proliferation by 50% when compared to DMSO control.

WiDr cells = test: WiDr CellTiter-Glo 3D cell proliferation assay; format: cell-based; conditions: Homo sapiens; WiDr cells, 3D proliferation; read-out: 3D WiDr pGI50 (converted)

SMILES | IC50 [1] | solubility thermodynamic at 24 h (FeSSIF solubility assay) | GI50 (HCT-116 cells) | GI50 (WiDr cells) | pERK HCT116 (2 hr) Abs pIC50 [1]
CC(C)CCc1c[nH]c(C2COc3ccc(Oc4ccnc5c4CCC(=O)N5)cc3C2)n1 (stereo not shown) [Compound 116] | 67.6 nM | 311 µg/mL (≈ 720 µM) | 66.1 nM | 126 nM | –
Cc1cc(-c2c[nH]c(C3COc4ccc(Oc5ccnc6c5CCC(=O)N6)cc4C3)n2)ccn1 (stereo not shown) [Compound 117, 5-[3-[4-(2-methyl-4-pyridyl)-1H-imidazol-2-yl]chroman-6-yl]oxy-3,4-dihydro-1H-1,8-naphthyridin-2-one] | 107 nM | 1.4 µg/mL (≈ 3.09 µM) | 214 nM | 708 nM | –
O=C(Cn1ccnc1)Nc1cc(Oc2ccc3c(c2)CC(c2nc(-c4ccccc4)c[nH]2)CO3)ccn1 (stereo not shown) [Compound 144] | 45.7 nM | 318 µg/mL (≈ 645 µM) | 100 nM | 380 nM | –
CC1CC1C(=O)Nc1cc(Oc2ccc3c(c2)CC(c2nc(-c4ccccc4)c[nH]2)CO3)ccn1 (stereo not shown) [Compound 157] | 112 nM | 116 µg/mL (≈ 249 µM) | 263 nM | 661 nM | –
CN1CCC(C(=O)Nc2cc(Oc3ccc4c(c3)CC(c3nc(-c5ccccc5)c[nH]3)CO4)ccn2)CC1 (stereo not shown) [Compound 147, 1-methyl-N-[4-[3-(4-phenyl-1H-imidazol-2-yl)chroman-6-yl]oxy-2-pyridyl]piperidine-4-carboxamide] | 324 nM | 528 µg/mL (≈ 1040 µM) | 1380 nM | 1380 nM | –
O=C(CN1CCCC1)Nc1cc(Oc2ccc3c(c2)CC(c2nc(-c4ccccc4)c[nH]2)CO3)ccn1 (stereo not shown) [Compound 152] | 209 nM | 997 µg/mL (≈ 2010 µM) | 832 nM | 5620 nM | –
Cc1cc(-c2c[nH]c(C3COc4ccc(Oc5ccnc6c5CCC(=O)N6)cc4C3)n2)n(C)n1 (stereo not shown) [Compound 106, 5-[3-[4-(2,5-dimethylpyrazol-3-yl)-1H-imidazol-2-yl]chroman-6-yl]oxy-3,4-dihydro-1H-1,8-naphthyridin-2-one] | 275 nM | 28.1 µg/mL (≈ 61.6 µM) | 437 nM | 1550 nM | –
O=C1CCc2c(Oc3ccc4c(c3)CN(c3nc5cc(C(F)(F)F)ccc5[nH]3)CC4)ccnc2N1 [Compound 160] | 135 nM | 3 µg/mL (≈ 6.26 µM) | 617 nM | 2090 nM | –
COc1ccsc1-c1c[nH]c(C2COc3ccc(Oc4ccnc5c4CCC(=O)N5)cc3C2)n1 (stereo not shown) [Compound 123] | 63.1 nM | 156 µg/mL (≈ 330 µM) | 40.7 nM | 53.7 nM | –
O=C(CN1CC(O)C1)Nc1cc(Oc2ccc3c(c2)CC(c2nc(-c4ccccc4)c[nH]2)CO3)ccn1 (stereo not shown) [Compound 153] | 200 nM | 336 µg/mL (≈ 675 µM) | 427 nM | 5620 nM | –
COc1cc(-c2c[nH]c(C3COc4ccc(Oc5ccnc6c5CCC(=O)N6)cc4C3)n2)ccn1 (stereo not shown) [Compound 104] | – | – | 447 nM | 1150 nM | 6.50
Cn1ncc2ccc(-c3c[nH]c(C4COc5ccc(Oc6ccnc7c6CCC(=O)N7)cc5C4)n3)cc21 (stereo not shown) [Compound 130, 5-[3-[4-(1-methylindazol-6-yl)-1H-imidazol-2-yl]chroman-6-yl]oxy-3,4-dihydro-1H-1,8-naphthyridin-2-one] | 141 nM | – | 617 nM | 1660 nM | –
O=C(CN1CC[C@@H](O)C1)Nc1cc(Oc2ccc3c(c2)CC(c2nc(-c4ccccc4)c[nH]2)CO3)ccn1 (stereo partly shown) [Compound 145] | 166 nM | – | 479 nM | 6310 nM | –
c1ccc(-c2c[nH]c(C3COc4ccc(Oc5ccnc(Nc6ccccn6)c5)cc4C3)n2)cc1 (stereo not shown) [Compound 140, 4-[3-(4-phenyl-1H-imidazol-2-yl)chroman-6-yl]oxy-N-(2-pyridyl)pyridin-2-amine] | > 1000 nM | – | 1320 nM | 1910 nM | –
CCc1cc(-c2c[nH]c(C3COc4ccc(Oc5ccnc6c5CCC(=O)N6)cc4C3)n2)ccn1 (stereo not shown) [Compound 118, 5-[3-[4-(2-ethyl-4-pyridyl)-1H-imidazol-2-yl]chroman-6-yl]oxy-3,4-dihydro-1H-1,8-naphthyridin-2-one] | 269 nM | – | 398 nM | 1170 nM | –
